Laboratory results from patent US20070117868A1, “Use of n-arylhydrazine derivatives for combating non-crop pests” (priority 2004, published 2007).

Tests used:
Format in all cases: in vivo
Solenopsis invicta [1] = test: Activity via glass contact, fire ant; settings: rate 10 ppm
Protocol: (§1) 1. Activity Against Argentine Ant, Harvester Ant, Acrobat Ant, Carpenter Ant, Fire Ant, House Fly, Stable Fly, Flesh Fly, Yellowfever Mosquito, House Mosquito, Malaria Mosquito, German Cockroach, Cat Flea, and Brown Dog Tick Via Glass Contact
(§2) Glass vials (20 ml scintillation vials) were treated with 0.5 ml of a solution of active ingredient in acetone. Each vial was rolled uncapped for ca. 10 minutes to allow the a.i. to completely coat the vial and to allow for full drying of the acetone. Insects or ticks were placed into each vial.

Anopheles albimanus [2] = test: Activity via water treatment, malaria mosquito larvae; settings: rate 1.0 ppm
Protocol: (§3) 4. Activity Against Yellowfever Mosquito, Southern House Mosquito, and Malaria Mosquito Larvae Via Water Treatment
(§4) Well plates were used as test arenas. The active ingredient was dissolved in acetone and diluted with water to obtain the concentrations needed. The final solutions containing appr. 1% acetone were placed into each well. Approximately 10 mosquito larvae (4th-instars) in 1 ml water were added to each well. Larvae were fed one drop of liver powder each day. The dishes were covered and maintained at 22° C. Mortality was recorded daily and dead larvae and live or dead pupae were removed daily. At the end of the test remaining live larvae were recorded and percent mortality was calculated.

Aedes aegypti [3] = test: Activity via water treatment, yellowfever mosquito larvae; settings: rate 10 ppm
Protocol: as §3, §4

Culex quinquefasciatus [4] = test: Activity via glass contact, house mosquito; settings: rate 0.5 ppm
Protocol: as §1, §2

Anopheles albimanus [5] = test: Activity via glass contact, malaria mosquito; settings: rate 1 ppm
Protocol: as §1, §2

Solenopsis invicta [6] = test: Activity via bait (corn grit), fire ant; settings: rate 0.7 w %
Protocol: (§5) 3. Activity Against Argentine Ant, Acrobat Ant, Carpenter Ant, Fire Ant, House Fly, Eastern Subterranean Termite, Formosan Subterranean Termite, and German Cockroach Via Bait
For the fire ants, corn grit was used as a bait matrix. […] Petri dishes were supplied with a water source. Fire ant adults were placed into each dish. The next day, 250 mg of bait in bait containers was placed into the dishes.

Camponotus floridanus [7] = test: Activity via glass contact, carpenter ant; settings: rate 10 ppm
Protocol: as §1, §2

Culex quinquefasciatus [8] = test: Activity via water treatment, house mosquito larvae; settings: rate 10 ppm
Protocol: as §3, §4

Musca domestica [9] = test: Activity via glass contact, house fly; settings: rate 10 ppm
Protocol: as §1, §2

Aedes aegypti [10] = test: Activity via glass contact, yellowfever mosquito; settings: rate 10 ppm
Protocol: as §1, §2

Coptotermes formosanus = test: Activity via bait (treated filter paper), Formosan termite; settings: rate 0.1 w %
Protocol: as §5
For termites, active ingredient in acetone was applied to filter papers. % a.i. were calculated on basis of the weight of the filter paper. Acetone only was applied for untreated controls. Treated papers were vented to evaporate the acetone, moistened with […], and placed Petri dishes with sand. Water was added during the test as needed. Bioassays were conducted with one treated filter and ca. 30 termite workers per test dish. Test dishes were maintained at 25° C. and appr. 85% relative humidity and observed daily for mortality (dead or moribund insects) or intoxication. Dead or moribund insects were removed daily.

Ctenocephalides felis = test: Activity via glass contact, cat flea; settings: rate 100 ppm
Protocol: as §1, §2

Sarcophaga sp. = test: Activity via glass contact, flesh fly; settings: rate 10 ppm
Protocol: as §1, §2

Musca domestica [11] = test: Activity via bait, house fly; settings: rate 0.1 w %
Protocol: as §5
For house flies. Bait tests were conducted with adults aged 2-5 days post-emergence. Active ingredient in acetone was applied to a bait matrix consisting of a 1:1 mixture of powdered milk and sugar which was then allowed to dry. Assays were conducted in jars with 250 mg of bait in a pan placed in the bottom of each jar. House flies were placed into the bait jars which were covered. The test jars were held at 22° C.

Solenopsis invicta [12] = test: Activity via soil contact, fire ant; settings: rate 0.01 w %
Protocol: (§6) 2. Activity Against Argentine Ant, Acrobat Ant, Carpenter Ant, Fire Ant, and Eastern Subterranean Termite Via Soil Contact
(§7) For ants, tests were conducted in Petri dishes. A thin layer of 1% agar in water was dispensed into the dishes and Florida sandy soil was spread over the agar (5 g for the small dishes and 11 g for the larger dishes). The active ingredient was dissolved in acetone and dispensed over the sand. Dishes were vented to evaporate the acetone, infested with ants, and covered. A 20% honey water solution was placed in each dish. The dishes were maintained at 22° C. and observed for mortality at various time intervals.

Crematogaster spp. = test: Activity via soil contact, acrobat ant; settings: rate 0.01 w %
Protocol: as §6, §7

Stomoxys calcitrans = test: Activity via glass contact, stable fly; settings: rate 10 ppm
Protocol: as §1, §2

Camponotus floridanus [13] = test: Activity via soil contact, carpenter ant; settings: rate 0.01 w %
Protocol: as §6, §7

Measured: Days or Hours to achieve 100% mortality

CCN/C(=N\Nc1c(Cl)cc(C(F)(F)F)cc1Cl)C(C)(C)C [Compound I-1, N-ethyl-2,2-dimethylpropionamide-2-(2,6-dichloro-α,α,α-trifluoro-p-tolyl)-hydrazone]
3 days: Solenopsis invicta [6]
2 days: Aedes aegypti [3] | Ctenocephalides felis | Crematogaster spp.
1 days: Anopheles albimanus [2] | Anopheles albimanus [5] | Camponotus floridanus [7] | Culex quinquefasciatus [8] | Solenopsis invicta [12] | Camponotus floridanus [13]
5 days: Coptotermes formosanus
3 h: Musca domestica [11]
4 h: all other assays above

CCN/C(=N\Nc1c(Cl)cc(C(F)(F)F)cc1Cl)C1(C)CC1(Cl)Cl (stereo not drawn) [Compound I-2, N-Ethyl-2,2-dichloro-1-methylcyclopropanecarboxamide-2-(2,6-dichloro-α,α,α-tri-fluoro-p-tolyl)hydrazone]
4 h: Solenopsis invicta [1] | Culex quinquefasciatus [4] | Musca domestica [9] | Aedes aegypti [10] | Sarcophaga sp. | Stomoxys calcitrans
3 days: Solenopsis invicta [6]
2 days: Aedes aegypti [3] | Ctenocephalides felis | Crematogaster spp.
5 days: Coptotermes formosanus
3 h: Musca domestica [11]
1 days: all other assays above
